According to US20240216321A1, “FERMENTATIVELY-PRODUCED RETINOID CONTAINING COMPOSITIONS, AND THE METHDOS OF MAKING AND USING THE SAME” (DSM IP Assets B.V., priority 2022, published 2024):

Tests used:
[1] = tested on: Corynebacterium xerosis; assay: Antimicrobial efficacy test in analogy to challenge test NF EN ISO11930; format: cell-based; details: initial inoculum count 100,000, 22° C.
Method: (§1) The antimicrobial efficacy of retinol and retinyl acetate having different cis/trans ratio has been assessed in analogy to the regulatory challenge test method (NF EN ISO11930). Thus, solutions of the respective retinol and retinyl acetate mixtures (reference samples and inventive mixtures with a purity of about 98%) were prepared in physiological serum with 0.85 wt.-% NaCl under sterile conditions. The presence of cis and trans-isomers in the retinoid component were calculated by reversed phase C4 HPLC analysis, with the total cis-isomer content in the retinoid component, relative to the total weight of trans-isomers in the retinoid component detected, is reported in Table 4 below along the row labelled “cis/trans ratio”. Also reported for each sample was the specific retinoid used as the retinoid component (either retinyl acetate or retinol for all samples). The solutions of the active(s) were then deposed in 96-deep well plates (1.6 ml/well) at a concentration as specified by wt. % in Table 4 below. The wells were contaminated with Cutibacterium acnes, Corynebacterium xerosis, and Malassezia furfur, respectively, to obtain the initial contamination. The initial contamination count, which is listed as “initial inoculum count” for each test as indicated in Tale 4 below, was determined to be 100,000. After contamination, each well was thoroughly mixed to ensure a homogeneous distribution of the microbes. Then each plate was incubated at 22° C. for 24 h. The counting of the (remaining) population was carried out 24 hours after contamination, as indicated below in Table 4 by the rows labelled “24 hr”. The change in count from the initial inoculum count to the 24-hour count (in terms of percentage) is reflected in the Table below by the rows labelled “A R”.

[2] = tested on: Cutibacterium acnes; assay: as above; format: cell-based; details: for 24 hr count (remaining population) / Δ R (change from initial inoculum count to 24-hour count): initial inoculum count 100,000, 22° C.; for reduction of Cutibacterium acnes: stated as reduction
Method: as §1

[3] = tested on: Malassezia furfur; assay: as above; format: cell-based; details: concentration 0.25%, initial inoculum count 100,000, 22° C.
Method: as §1

[4] = format: physicochemical
Method: Retinoid quantification: Analysis of retinoids were carried out with a C4 reverse phase retinoid method (see below). The addition of all added intermediates gives the total amount of retinoids.
C4 reverse phase chromatography. For exact determination of discrete retinoids, the long run reverse phase system was used. Analytes were separated using the Agilent 1290 instrument with YMC Pro C4, 150×3.0 mm, 3 um column (YMC America, Allentown PA) stationary phase, and a 5 μl injection loop volume and column and sample tray controlled at 23° C. with gradients described in Table B. Analytes were detected at 210, 230 nm and 325 nm and the peak's identity was verified with LCMS. The analytes were separated as discrete peaks that were assigned according to the table below. […]
To determine oxidative stability of examples 1-5, each sample, the preparation of which is described above, was placed under ambient conditions (20° C. and 50% relative humidity preferred) in its own small brown glass vial, blanketed with argon, and put into an oven preheated to 105° C. Thereafter, the samples remained in the oven for 3 hours. After three hours the samples were taken out of the oven and analyzed via the same method(s) utilized to determine “initial” values as reported in Table 1 above. The values for each component were measured after the thermal stress test and compared to the values determined prior to the test. For clarity, example 1 indicated a total retinoid component (see row in Table 1 above labelled “all retinyl acetate (all species)”) prior to the thermal stress test of 90.53%; the change indicated in Table 2 of −1.31% below signifies that the total retinoid component determined after the thermal stress test was 89.22% (by weight relative to the entire sample weight).

[5] = 105° C. for 3 hours, blanketed with argon, change vs value before test

Compound	24 hr count (remaining population) ([1]; concentration 0.1%)	Δ R (change from initial inoculum count to 24-hour count) ([1]; concentration 0.1%) [%]	24 hr count (remaining population) ([1]; concentration 0.25%)	Δ R (change from initial inoculum count to 24-hour count) ([1]; concentration 0.25%) [%]	24 hr count (remaining population) ([2]; concentration 0.1%)	Δ R (change from initial inoculum count to 24-hour count) ([2]; concentration 0.1%) [%]	reduction of Cutibacterium acnes ([2]; retinyl acetate mixtures)	24 hr count (remaining population) [3]	Δ R (change from initial inoculum count to 24-hour count) [3] [%]	24 hr count (remaining population) ([2]; concentration 0.25%)	Δ R (change from initial inoculum count to 24-hour count) ([2]; concentration 0.25%) [%]	also measured
CC(=O)OC/C=C(C)/C=C/C=C(C)/C=C/C1=C(C)CCCC1(C)C [Ex. 7, Retinyl acetate]	370,000	270	40,000	−60	370,000	270						
CC(=O)OC/C=C(C)/C=C/C=C(C)/C=C/C1=C(C)CCCC1(C)C [Ex. 8, Retinyl acetate]	70,000	−30	37,000	−63	70,000	−30	about 30%					
CC(=O)OC/C=C(C)/C=C/C=C(C)/C=C/C1=C(C)CCCC1(C)C [Ex. 9, Retinyl acetate]	70,000	−30	10,000	−90	70,000	−30	about 30%					
CC1=C(/C=C/C(C)=C/C=C/C(C)=C/CO)C(C)(C)CCC1 [Ex. 10, Retinol]								100,000	0	1,000	−99	
CC1=C(/C=C/C(C)=C/C=C/C(C)=C/CO)C(C)(C)CCC1 [Ex. 11, Retinol]								40,000	−60	700	−99.3	reduction of Cutibacterium acnes ([2]; retinol compositions): 99.3%
CC(=O)OC/C=C(C)/C=C/C=C(C)/C=C/C1=C(C)CCCC1(C)C [Example 5, retinyl acetate]												9Z-retinal, % change [4, 5]: 0.00%; Dihydro-actinidiole, % change [4, 5]: −0.01%; Dihydro-retinol, % change [4, 5]: 0.00%; E-Retinal, % change [4, 5]: −0.01%; E-retinol, % change [4, 5]: −0.01%; Retinyl acetate (all species), % change [4, 5]: −5.50%; Z-retinol, % change [4, 5]: −0.04%; cis-retinyl acetate, % change [4, 5]: −0.22%; Ethanol, % change ([4]; 105° C. for 3 hours, blanketed with argon, change vs value before test (wt. % of entire composition)): 0.00%; reduction in retinyl acetate (loss of retinyl acetate content) after heat stability test ([4]; 3 h): 5.50%
